Experimental data taken from US9593305B2, “Differentiation of pluripotent stem cells” (Janssen Biotech, Inc., priority 2008, dated 2017).

Test system: H1 human embryonic stem cells
Test: Screen of CDK, GSK3 and TRK inhibitors with or without GDF-8, SOX17 and cell number (Example 20, Table 17)
Type: cell-based
Details: for Cell Number, Average Total Cell Number / Sox17 Expression, Average Total Intensity / Cell Number, % of positive control / Sox17 Expression, % of positive control: Plate 1; for Cell Number, % of positive control / Sox17 Expression, % of positive control: positive control = Activin A/Wnt3a
Description: Briefly, clusters of H1 human embryonic stem cells were grown on reduced growth factor Matrigel™ (Invitrogen; Cat #356231) coated tissue culture plastic. Cells were passaged using collagenase (Invitrogen; Cat #17104-019) treatment and gentle scraping, washed to remove residual enzyme, and plated with even dispersal at a ratio of 1:1 (surface area) on reduced growth factor […]™ (BD Biosciences; Cat #356231)-coated 96-well black plates (Packard ViewPlates; PerkinElmer; Cat #6005182) using volumes of 100 μl/well. Cells were allowed to attach and then recover log phase growth over a 1 to 3 day time period, feeding daily with MEF conditioned medium supplemented with 8 ng/ml bFGF (R&D Systems; Cat #233-FB). Plates were maintained at 37° C., 5% CO2 in a humidified box throughout the duration of assay.
Screening was conducted using the compounds described in Table 16. […] Compounds were made available as 5 mM stocks in 96-well plate format, solubilized in 100% DMSO (Sigma; Cat #D2650) and stored at −80° C. The library compounds were further diluted to an intermediate concentration of 0.2 mM in 50 mM HEPES (Invitrogen; Cat #15630-080), 20% DMSO and stored at 4° C. Test conditions were performed in triplicate, feeding on alternating days over a four-day assay period. Assay was initiated by aspirating culture medium from each well followed by three washes in PBS (Invitrogen; Cat #14190) to remove residual growth factors. On the first day of assay, test volumes of 200 μl per well were added to each well using DMEM:F12 base medium (Invitrogen; Cat #11330-032) supplemented with 0.5% FCS (HyClone; Cat #SH30070.03) and 100 ng/ml GDF-8 (R&D Systems, Cat #788-G8) plus 2.5 μM compound. A parallel set of test samples were treated in an identical manner but omitting GDF-8 from the medium. On the third day of assay, test volumes of 100 μper well were added to each well using DMEM:F12 base medium supplemented with 2% FCS plus 100 ng/ml GDF-8 (R&D Systems, Cat #788-G8). […] Positive control samples contained the same base medium supplemented with FCS and 100 ng/ml recombinant human activin A (PeproTech; Cat #120-14) throughout the four day assay along with Wnt3a (20 ng/ml) addition on days 1 and 2. Negative control samples contained DMEM:F12 base medium supplemented with FCS.
At the conclusion of four-days of culture, assay plates were washed twice with PBS (Invitrogen; Cat #14190), fixed with 4% paraformaldehyde (Alexis Biochemical; Cat #ALX-350-011) at room temperature for 20 minutes, then washed three times with PBS and permeabilized with 0.5% Triton X-100 (Sigma; Cat #T8760-2) for 20 minutes at room temperature. Cells were washed again three times with PBS and blocked with 4% chicken serum (Invitrogen; Cat #16110082) in PBS for 30 minutes at room temperature. Primary antibody (goat anti-human SOX17; R&D Systems; Cat #AF1924) was diluted 1:100 in 4% chicken serum and added to each well for one hour at room temperature. Alexa Fluor 488 conjugated secondary antibody (chicken anti-goat IgG; Molecular Probes; Cat #AZ1467) was diluted 1:200 in PBS and added to each sample well after washing three times with PBS. To counterstain nuclei, 4 μg/ml Hoechst 33342 (Invitrogen; Cat #H3570) was added for ten minutes at room temperature. Plates were washed once with PBS and left in 100 μl/well PBS for imaging.
Imaging was performed using an IN Cell Analyzer 1000 (GE Healthcare) utilizing the 51008bs dichroic for cells stained with Hoechst 33342 and Alexa Fluor 488. Exposure times were optimized from positive control wells and from untreated negative control wells stained with secondary antibody alone. Images from 15 fields per well were acquired to compensate for any cell loss during the bioassay and subsequent staining procedures. Measurements for total cell number and total SOX17 intensity were obtained from each well using IN Cell Developer Toolbox 1.7 (GE Healthcare) software. […]

[1] = compound in combination with GDF8
[2] = growth factor treatment alone, no compound

Compound	SOX17 expression in the presence of GDF-8 (2.5 μM compound with 100 ng/ml GDF-8, four days)	Cell Number, Average Total Cell Number [1]	Sox17 Expression, Average Total Intensity [1]	Cell Number, % of positive control [1]	Sox17 Expression, % of positive control [1]	Cell Number, Average Total Cell Number [2]	Sox17 Expression, Average Total Intensity [2]	Cell Number, % of positive control [2]	Sox17 Expression, % of positive control [2]
O=C1CCN2CCN(CC2)Cc2cc(Cl)cc(c2)Nc2ncnc(n2)-c2cncc(c2)CCCN1 [Compound 34, 5-Chloro-1,8,10,12,16,22,26,32-octaazapentacyclo[24.2.2.1˜3.7˜0.1˜9,13˜0.1˜14.18˜]tritriaconta-3(33), 4,6,9(32), 10,12,14(31), 15,17-nonaen-23-one]	induced significant SOX17 expression	13926	2.6E+08	96.2 % of positive control	111.8 % of positive control	–	–	–	–
GDF-8: growth factor GDF-8, also known as myostatin, member of the TGF-β family	–	–	–	–	–	2856	2.2E+07	19.7 % of positive control	9.4 % of positive control
